We go through 21 compounds from US20250236608A1, “EGFR INHIBITORS” (Blueprint Medicines Corporation, priority 2022, published 2025).

The target of one assay is EGFR (d746-750) (Homo sapiens (Human), UniProt P00533, DEL746-750). Briefly: Biochemical EGFR inhibition assay, EGFR (d746-750). As to conditions: Caliper mobility shift; 1.0 mM ATP or ATP Km; read-out: Enz EGFR_Exon19-del746-750 IC50.
The target in assay [1] is pEGFR (Tyr1068) in PC-9 cells (Ex19Del) (Homo sapiens (Human), UniProt P00533, DEL746-750). Kind of assay: PC-9 pEGFR AlphaLISA assay. Type of assay: cell-based. To be noted: 4 hours incubation, p-EGFR (Tyr1068) AlphaLISA, read-out: Ext pEGFR_PC-9 Ex19Del IC50. The gist of the method: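 First, cells settled overnight in 10% FBS medium. Second, a 10-point, 4-fold series of test agents was applied for 4 h at 37° C. Third, lysates were probed with AlphaLISA acceptor and donor beads, incubated overnight in the dark. Last, IC50 was taken from the dose-response.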
Sequence of pEGFR (Tyr1068) in PC-9 cells (Ex19Del) (P00533 other isoform, or with tags, fused parts or gaps del 746-750): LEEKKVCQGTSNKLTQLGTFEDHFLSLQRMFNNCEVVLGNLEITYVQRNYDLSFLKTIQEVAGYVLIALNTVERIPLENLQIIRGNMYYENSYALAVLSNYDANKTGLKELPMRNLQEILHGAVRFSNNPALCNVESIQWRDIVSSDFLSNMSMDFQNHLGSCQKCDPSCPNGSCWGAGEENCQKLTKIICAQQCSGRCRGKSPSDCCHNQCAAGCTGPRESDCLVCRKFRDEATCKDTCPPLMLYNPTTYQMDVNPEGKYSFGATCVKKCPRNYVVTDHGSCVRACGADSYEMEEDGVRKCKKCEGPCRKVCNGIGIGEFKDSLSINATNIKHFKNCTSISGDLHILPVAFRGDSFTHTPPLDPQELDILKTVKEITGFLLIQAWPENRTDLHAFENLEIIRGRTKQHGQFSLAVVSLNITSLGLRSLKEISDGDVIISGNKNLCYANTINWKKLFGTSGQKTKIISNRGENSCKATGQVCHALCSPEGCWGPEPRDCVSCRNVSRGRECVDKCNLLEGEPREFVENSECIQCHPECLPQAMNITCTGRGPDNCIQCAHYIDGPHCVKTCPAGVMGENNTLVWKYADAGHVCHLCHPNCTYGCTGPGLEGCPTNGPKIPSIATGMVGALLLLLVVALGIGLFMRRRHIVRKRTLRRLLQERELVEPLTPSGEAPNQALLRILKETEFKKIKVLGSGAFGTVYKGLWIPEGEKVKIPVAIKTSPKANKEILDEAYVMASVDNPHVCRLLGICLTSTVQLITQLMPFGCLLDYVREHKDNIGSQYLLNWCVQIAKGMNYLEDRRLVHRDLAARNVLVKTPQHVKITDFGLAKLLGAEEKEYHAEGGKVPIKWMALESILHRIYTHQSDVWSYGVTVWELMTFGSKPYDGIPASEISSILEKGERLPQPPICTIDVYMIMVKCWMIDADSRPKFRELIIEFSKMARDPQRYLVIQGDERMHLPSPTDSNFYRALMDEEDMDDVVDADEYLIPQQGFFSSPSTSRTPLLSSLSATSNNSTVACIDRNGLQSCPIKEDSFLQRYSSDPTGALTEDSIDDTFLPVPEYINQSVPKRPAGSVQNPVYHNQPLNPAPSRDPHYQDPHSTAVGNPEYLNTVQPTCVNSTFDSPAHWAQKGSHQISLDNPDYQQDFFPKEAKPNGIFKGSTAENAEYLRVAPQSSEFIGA

The next assay addresses EGFR L858R (Homo sapiens (Human), UniProt P00533, L858R). Briefly: Biochemical EGFR inhibition assay, EGFR L858R. To be noted: Caliper mobility shift; 1.0 mM ATP or ATP Km; read-out: Enz EGFR_L858R IC50.

The structures appear in SMILES notation.

Sequence of EGFR L858R (P00533 25-1210 L858R): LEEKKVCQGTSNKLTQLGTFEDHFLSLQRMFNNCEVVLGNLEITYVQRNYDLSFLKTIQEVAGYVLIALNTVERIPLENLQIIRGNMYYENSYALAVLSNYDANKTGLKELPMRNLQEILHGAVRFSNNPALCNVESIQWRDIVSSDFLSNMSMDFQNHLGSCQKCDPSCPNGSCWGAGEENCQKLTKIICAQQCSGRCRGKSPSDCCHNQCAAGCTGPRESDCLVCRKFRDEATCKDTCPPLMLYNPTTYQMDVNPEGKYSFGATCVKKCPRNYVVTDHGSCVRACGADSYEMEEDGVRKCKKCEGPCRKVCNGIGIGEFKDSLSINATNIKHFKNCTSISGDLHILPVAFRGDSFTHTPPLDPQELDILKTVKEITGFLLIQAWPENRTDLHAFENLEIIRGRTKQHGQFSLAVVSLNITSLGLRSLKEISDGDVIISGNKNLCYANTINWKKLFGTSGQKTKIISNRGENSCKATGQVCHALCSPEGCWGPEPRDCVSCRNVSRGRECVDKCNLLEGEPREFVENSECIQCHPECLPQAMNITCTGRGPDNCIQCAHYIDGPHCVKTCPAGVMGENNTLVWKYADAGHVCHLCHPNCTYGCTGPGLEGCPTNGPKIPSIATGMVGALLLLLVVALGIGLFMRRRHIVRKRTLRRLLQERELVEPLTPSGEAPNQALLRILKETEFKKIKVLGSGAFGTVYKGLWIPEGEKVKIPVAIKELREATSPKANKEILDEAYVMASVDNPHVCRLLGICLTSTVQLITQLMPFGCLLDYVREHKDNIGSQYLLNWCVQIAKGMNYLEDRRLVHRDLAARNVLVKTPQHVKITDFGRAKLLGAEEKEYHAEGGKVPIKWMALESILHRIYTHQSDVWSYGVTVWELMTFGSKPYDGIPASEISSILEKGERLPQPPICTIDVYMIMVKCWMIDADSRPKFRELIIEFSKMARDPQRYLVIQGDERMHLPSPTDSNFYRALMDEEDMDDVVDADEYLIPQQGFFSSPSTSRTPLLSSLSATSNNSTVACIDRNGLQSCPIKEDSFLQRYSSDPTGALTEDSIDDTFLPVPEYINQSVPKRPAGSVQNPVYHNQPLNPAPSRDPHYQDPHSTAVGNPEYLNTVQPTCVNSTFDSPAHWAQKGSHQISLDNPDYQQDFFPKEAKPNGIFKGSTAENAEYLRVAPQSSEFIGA
Sequence of EGFR (d746-750) (P00533 other isoform, or with tags, fused parts or gaps del 1-694/del 746-750 limits assumed): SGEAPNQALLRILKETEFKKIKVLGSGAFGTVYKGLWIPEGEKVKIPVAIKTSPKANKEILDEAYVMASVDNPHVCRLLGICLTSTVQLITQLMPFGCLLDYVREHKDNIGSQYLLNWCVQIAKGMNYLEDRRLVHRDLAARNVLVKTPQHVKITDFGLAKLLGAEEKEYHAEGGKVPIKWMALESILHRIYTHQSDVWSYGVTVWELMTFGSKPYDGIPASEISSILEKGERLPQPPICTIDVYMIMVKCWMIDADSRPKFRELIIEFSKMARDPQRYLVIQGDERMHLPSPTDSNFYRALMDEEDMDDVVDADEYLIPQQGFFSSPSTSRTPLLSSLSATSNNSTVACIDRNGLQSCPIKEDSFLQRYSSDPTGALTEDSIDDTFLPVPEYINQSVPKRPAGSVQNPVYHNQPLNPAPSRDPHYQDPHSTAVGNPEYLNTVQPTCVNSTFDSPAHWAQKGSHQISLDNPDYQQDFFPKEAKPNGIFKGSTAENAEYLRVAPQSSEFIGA

Turning to `CCOc1cc2ncnc(-c3cn(C)nc3-c3ccc(F)cc3)c2nc1NC(=O)[C@]12COC[C@H]1C2` (single isomer, unassigned) [Example 384, (1S,5S)—N-(7-ethoxy-4-(3-(4-fluorophenyl)-1-methyl-1H-pyrazol-4-yl)pyrido[3,2-d]pyrimidin-6-yl)-3-oxabicyclo[3.1.0]hexane-1-carboxamide or (1R,5R)—N-(7-ethoxy-4-(3-(4-fluorophenyl)-1-methyl-1H-pyrazol-4-yl)pyrido[3,2-d]pyrimidin-6-yl)-3-oxabicyclo[3.1.0]hexane-1-carboxamide], the IC50 at EGFR (d746-750) stood at 0.3 nM; in assay [1], 1.1 nM; on EGFR L858R, 1.1 nM.

Take `COc1cc2ncnc(-c3cn(C)nc3-c3ccccc3)c2cc1NC(=O)[C@]1(C)CCCO1` (single isomer, unassigned) [Example 258, (S)—N-(7-methoxy-4-(1-methyl-3-phenyl-1H-pyrazol-4-yl)quinazolin-6-yl)-2-methyltetrahydrofuran-2-carboxamide or (R)—N-(7-methoxy-4-(1-methyl-3-phenyl-1H-pyrazol-4-yl)quinazolin-6-yl)-2-methyltetrahydrofuran-2-carboxamide]: the IC50 amounted to 0.9 nM on EGFR (d746-750), 4.2 nM in assay [1] and 3.8 nM on EGFR L858R.

With `COc1cc2ncnc(-c3cn(C)nc3-c3ccc(F)cc3F)c2nc1NC(=O)C12CC(C1)C2` [Example 421, N-(4-(3-(2,4-difluorophenyl)-1-methyl-1H-pyrazol-4-yl)-7-methoxypyrido[3,2-d]pyrimidin-6-yl)bicyclo[1.1.1]pentane-1-carboxamide], the results for the IC50 (at EGFR (d746-750); in assay [1]; on EGFR L858R) were 1.8 nM, 1.9 nM and 1.3 nM, respectively.

Turning to `Cn1cc(-c2ncnc3cc(OC4CC4)c(NC(=O)C4(C(F)(F)F)CC4)nc23)c(-c2ccccc2)n1` [Example 463, N-[7-cyclopropoxy-4-(1-methyl-3-phenyl-1H-pyrazol-4-yl)pyrido[3,2-d]pyrimidin-6-yl]-1-(trifluoromethyl)cyclopropane-1-carboxamide], the IC50 on EGFR (d746-750) came out at 0.8 nM; in assay [1], 1.7 nM; on EGFR L858R it was 3.9 nM.

As to `COc1cc2ncnc(-c3cn(C)nc3-c3ccccc3)c2cc1[C@@H](C)O` (single isomer, unassigned) [Example 115, (R)-1-(7-methoxy-4-(1-methyl-3-phenyl-1H-pyrazol-4-yl)quinazolin-6-yl)ethan-1-ol or (S)-1-(7-methoxy-4-(1-methyl-3-phenyl-1H-pyrazol-4-yl)quinazolin-6-yl)ethan-1-ol], the IC50 on EGFR (d746-750) came to 1.2 nM; in assay [1] it was 10.6 nM; at EGFR L858R it was 2.3 nM.

As to `CCOc1cc2ncnc(-c3cn(C)nc3-c3ccccc3)c2nc1NC(=O)C12CC(C1)C2` [Example 311, N-(7-ethoxy-4-(1-methyl-3-phenyl-1H-pyrazol-4-yl)pyrido[3,2-d]pyrimidin-6-yl)bicyclo[1.1.1]pentane-1-carboxamide], the IC50 at EGFR (d746-750) turned out to be 1.9 nM; in assay [1], 2.1 nM; on EGFR L858R it was 3.4 nM.

Consider `COc1cc2ncnc(-c3cn(C)nc3-c3ccccc3)c2nc1OC(C)c1nnnn1C` (stereo not drawn) [Example 29, 7-methoxy-6-(1-(1-methyl-1H-tetrazol-5-yl)ethoxy)-4-(1-methyl-3-phenyl-1H-pyrazol-4-yl)pyrido[3,2-d]pyrimidine], for which the IC50 on EGFR (d746-750) stood at 1.9 nM; in assay [1] it was 11.3 nM; at EGFR L858R it was 4.8 nM.

On to `COc1cc2ncnc(-c3cn(C)nc3-c3ccccc3F)c2nc1NC(=O)C12CC(N(C)C)(C1)C2` [Example 403, 3-(dimethylamino)-N-(4-(3-(2-fluorophenyl)-1-methyl-1H-pyrazol-4-yl)-7-methoxypyrido[3,2-d]pyrimidin-6-yl)bicyclo[1.1.1]pentane-1-carboxamide], for which the IC50 at EGFR (d746-750) was found to be 1.2 nM; in assay [1], 5 nM; on EGFR L858R, 4.2 nM.

With `COc1cc2ncnc(-c3cn(C)nc3-c3ccccc3)c2nc1NC(=O)[C@]12C[C@H]1CN(C)C2` (single isomer, unassigned) [Example 393, (1R,5R)—N-(7-methoxy-4-(1-methyl-3-phenyl-1H-pyrazol-4-yl)pyrido[3,2-d]pyrimidin-6-yl)-3-methyl-3-azabicyclo[3.1.0]hexane-1-carboxamide or (1S,5S)—N-(7-methoxy-4-(1-methyl-3-phenyl-1H-pyrazol-4-yl)pyrido[3,2-d]pyrimidin-6-yl)-3-methyl-3-azabicyclo[3.1.0]hexane-1-carboxamide], the figures for the IC50 (at EGFR (d746-750); in assay [1]; at EGFR L858R) were 0.9 nM, 3.5 nM and 2.1 nM, respectively.

Turning to `COc1cc2ncnc(-c3cn(C)nc3-c3ccccc3)c2cc1NC(=O)C1(C)CCCO1` (stereo not drawn) [Example 224, N-(7-methoxy-4-(1-methyl-3-phenyl-1H-pyrazol-4-yl)quinazolin-6-yl)-2-methyltetrahydrofuran-2-carboxamide], the IC50 on EGFR (d746-750) stood at 3 nM; in assay [1], 3.9 nM; on EGFR L858R, 5.1 nM.

As to `COc1cc2ncnc(-c3cn(C)nc3-c3ccccc3)c2nc1NC(=O)c1cn(C(F)(F)F)nc1C` [Example 428, N-(7-methoxy-4-(1-methyl-3-phenyl-1H-pyrazol-4-yl)pyrido[3,2-d]pyrimidin-6-yl)-3-methyl-1-(trifluoromethyl)-1H-pyrazole-4-carboxamide], the IC50 was 1.2 nM on EGFR (d746-750), 7.7 nM in assay [1] and 3.9 nM on EGFR L858R.

For the compound `Cn1cc(-c2ncnc3cc(OC4CC4)c(NC(=O)[C@]45COCC4C5)nc23)c(-c2ccccc2)n1` (stereo partly drawn) [Example 459, (1S)—N-[7-cyclopropoxy-4-(1-methyl-3-phenyl-1H-pyrazol-4-yl)pyrido[3,2-d]pyrimidin-6-yl]-3-oxabicyclo[3.1.0]hexane-1-carboxamide], the results for the IC50 (at EGFR (d746-750); in assay [1]; at EGFR L858R) were 1 nM, 1.2 nM and 3.8 nM, respectively.

Turning to `COc1cc2ncnc(-c3cn(C)nc3-c3ccccc3)c2cc1[C@H](C)O` (single isomer, unassigned) [Example 116, (S)-1-(7-methoxy-4-(1-methyl-3-phenyl-1H-pyrazol-4-yl)quinazolin-6-yl)ethan-1-ol or (R)-1-(7-methoxy-4-(1-methyl-3-phenyl-1H-pyrazol-4-yl)quinazolin-6-yl)ethan-1-ol], the IC50 at EGFR (d746-750) was 1.1 nM; in assay [1] it was 11.5 nM; at EGFR L858R, 1.2 nM.

Turning to `COc1cc2ncnc(-c3cn(C)nc3-c3ccccc3)c2nc1NC(=O)c1cnn(C(F)(F)F)c1C` [Example 427, N-(7-methoxy-4-(1-methyl-3-phenyl-1H-pyrazol-4-yl)pyrido[3,2-d]pyrimidin-6-yl)-5-methyl-1-(trifluoromethyl)-1H-pyrazole-4-carboxamide], the IC50 on EGFR (d746-750) came out at 0.7 nM; in assay [1] it was 2.1 nM; at EGFR L858R it was 2 nM.

Consider `COc1cc2ncnc(-c3cn(C)nc3-c3ccccc3)c2cc1NC(=O)c1c(C)cccc1F` [Example 201, 2-fluoro-N-(7-methoxy-4-(1-methyl-3-phenyl-1H-pyrazol-4-yl)quinazolin-6-yl)-6-methylbenzamide], for which the IC50 on EGFR (d746-750) stood at 1.4 nM; in assay [1], 3.8 nM; on EGFR L858R it was 2 nM.

In the case of `COc1cc2ncnc(-c3cn(C)nc3-c3ccccc3)c2cc1N1CCN(C)C1=O` [Example 176, 1-(7-methoxy-4-(1-methyl-3-phenyl-1H-pyrazol-4-yl)quinazolin-6-yl)-3-methylimidazolidin-2-one], the results for the IC50 (at EGFR (d746-750); in assay [1]; at EGFR L858R) were 3 nM, 11 nM and 5.4 nM, respectively.

For the compound `COc1cc2ncnc(-c3cn(C)nc3-c3ccccc3)c2cc1NC(=O)[C@@H]1CCN(C)C1` [Example 210, (R)-N-(7-methoxy-4-(1-methyl-3-phenyl-1H-pyrazol-4-yl)quinazolin-6-yl)-1-methylpyrrolidine-3-carboxamide], the IC50 on EGFR (d746-750) amounted to 0.6 nM; in assay [1] it was 1.7 nM; at EGFR L858R it was 1.1 nM.

For `COc1cc2ncnc(-c3cn(C4CC4)nc3-c3ccccc3)c2nc1NC(=O)C1(C(F)(F)F)CC1` [Example 367, N-(4-(1-cyclopropyl-3-phenyl-1H-pyrazol-4-yl)-7-methoxypyrido[3,2-d]pyrimidin-6-yl)-1-(trifluoromethyl)cyclopropane-1-carboxamide], the figures for the IC50 (at EGFR (d746-750); in assay [1]; at EGFR L858R) were 0.9 nM, 0.5 nM and 1.6 nM, respectively.

Turning to `COc1cc2ncnc(-c3cn(C)nc3-c3ccccc3)c2cc1NC(=O)C1(C(F)(F)F)CC1` [Example 349, N-(7-methoxy-4-(1-methyl-3-phenyl-1H-pyrazol-4-yl)quinazolin-6-yl)-1-(trifluoromethyl)cyclopropane-1-carboxamide], the results for the IC50 (at EGFR (d746-750); in assay [1]; on EGFR L858R) were 1 nM, 3.5 nM and 2 nM, respectively.

Take `Cn1cc(-c2cc(F)c3c(-c4cn(C)nc4-c4ccccc4)ncnc3c2)cn1` [Example 439, 5-fluoro-7-(1-methyl-1H-pyrazol-4-yl)-4-(1-methyl-3-phenyl-1H-pyrazol-4-yl)quinazoline]: the values for the IC50 (on EGFR (d746-750); in assay [1]; on EGFR L858R) were 0.4 nM, 1.7 nM and 0.7 nM, respectively.

Turning to `COc1cc2ncnc(-c3cn(CC(F)F)nc3-c3ccccc3)c2cc1NC(=O)c1scnc1C` [Example 273, N-(4-(1-(2,2-difluoroethyl)-3-phenyl-1H-pyrazol-4-yl)-7-methoxyquinazolin-6-yl)-4-methylthiazole-5-carboxamide], the figures for the IC50 (at EGFR (d746-750); in assay [1]; at EGFR L858R) were 1 nM, 0.6 nM and 1.5 nM, respectively.

Broadly, the IC50 is the concentration at which inhibition is half-maximal.
